Measured values: patent publication US20040248905A1, “6-Substituted pyrazolo [3,4-d] pyrimidin-4-ones useful as cyclin dependent kinase inhibitors” (priority 2001, published 2004)

melting point: 200 to 202 °C
SMILES: CC(C)c1[nH]n(-c2c(Cl)cc(Cl)cc2Cl)c2nc(Cc3ccc(NC(=O)OCCCN(C)C)cc3)nc(=O)c1-2 [Example 1, 1-(2,4,6-trichlorophenyl)-3-isopropyl-6-(4-(3-(N,N-dimethylamino)prop-1-yloxycarbonylamino)benzyl)pyrazolo[3,4-d]pyrimidin-4-one]
